In US8664384B2, “N6-(ferrocenmethyl)quinazolin-2,4,6-triamina (H2) and the derivatives and prodrugs thereof as antileishmanial, antiprotozoal, antiparasitic and antimicrobial agents” (priority 2010, dated 2014):
Where two headings read alike, the source gives them in different places.

What was measured:
[1] = tested on: Leishmania mexicana MNYC/BZ/62/M379 reference strain; type: cell-based
Description: FIG. 3: A plot showing the H2 prodrug activity toward the in vitro growth of Leishmania Mexicana. To obtain a higher sensitivity in this experiment, the MNYC/BZ/62/M379 reference strain, which has a higher sensitivity to H2 than does MHOM/MX/01/Tab3, was used. The number of parasites/ml was determined at 72 hours of incubation using 100 mM of each compound in four replicates. The culture conditions were the same as described in FIG. 1.
The following is a list of Leishmania mexicana growth inhibition activity by the prodrugs compared to H2 and a control.

[2] = tested on: Leishmania mexicana strain MHOM/MX/01/Tab3; assay: in vitro growth of Leishmania mexicana, parasite count in Neubauer chamber; type: cell-based
Description: FIG. 1: The biological activity of H2 toward the in vitro growth of Leishmania mexicana strain MHOM/MX/01/Tab3. A growth curve collected after 72 hours of parasite cultivation in a Neubauer chamber in the presence of the H2 is shown. The H2 concentration is shown on the horizontal axis, whereas the number of parasites/ml is shown on the vertical axis. The experiment was performed at room temperature using high-glucose Dulbecco's Modified Eagle's Medium with 10% fetal bovine serum.
FIG. 2: Photograph obtained using an inverted microscope showing the inhibition of Leishmania growth by H2. The parasite culture shown in the left image was grown under the same conditions described in FIG. 1 but with the absence of H2.
At greater than 5 μg/ml, H2 is lethal to Leishmania in less than 5 hours. The in vitro effect is apparent at 30 minutes after application. The parasite structure is modified such that it loses its characteristic form, loses refringence, becomes spherical, and is incapable of multiplying. H2 has a CL50 of 2.6 μm/ml for the Leishmania mexicana MHOM/MX/01/Tab3 strain. The mechanism of cellular damage could not be identified by means of annexin for concentrations greater than 10 μg/ml; it is thought that a necrosis process rather than apoptosis is likely involved.

[3] = tested on: Leishmania mexicana cultures (Tab3 or M379 strain); assay: elimination of parasites in Leishmania mexicana cultures; type: cell-based; details: 3 μg/ml; 10^6 parasites/ml; Dulbecco's medium with 4.5 mg/mL glucose and 10% fetal bovine serum
Description: H2 (3 μg/ml) eliminates more than 90% of the parasites in Leishmania mexicana cultures (Tab3 or M379 strain) with 10^6 parasites/ml in Dulbecco's medium modified with 4.5 mg/mL glucose and 10% fetal bovine serum.

murine cells = assay: in vitro cytotoxicity against murine cells; type: cell-based; details: in vitro studies
Excerpt: (§1) Cytotoxicity against murine cells was not found in in vitro studies or in vivo studies using oral, parenteral, or dermal administration in mice.

mice = assay: in vivo toxicity studies in mice; details: oral, parenteral, or dermal administration in mice
Excerpt: as §1

[4] = tested on: microorganisms, parasites, and protozoa, including members of the Leishmania genus; assay: antimicrobial, antiparasitic and leishmanicide activity (general statement); type: cell-based; details: from 0.1 μg/ml to greater than 100 μg/ml
Description: The N^6-(ferrocenmethyl)quinazoline-2,4,6-triamine compound, which we refer to as H2, presents antimicrobial, antiparasitic, and leishmanicide activity from 0.1 μg/ml to greater than 100 μg/ml. H2 can be used in the treatment of infections caused by microorganisms, parasites, and protozoa, including members of the Leishmania genus in particular.

Compound	% of Leishmania Growth Inhibition [1]	effect on parasite culture (inverted microscope, FIG. 2) ([2]; 1 μg/ml H2, conditions of FIG. 1)	time until lethal to Leishmania ([2]; H2 at greater than 5 μg/ml)	CL50 ([2]; Leishmania mexicana MHOM/MX/01/Tab3 strain)	speed of killing the total amount of parasites compared to meglumine antimoniate, metronidazole or hydroxyurea ([2]; faster than previously described compounds, at doses ten-fold lower or less)	time at which the in vitro effect is apparent after application ([2]; in vitro)	parasites eliminated [3]	% of Leishmania Growth Inhibition ([1]; 72 hours of incubation, 100 mM of each compound, four replicates, M379 strain (FIG. 3))	cytotoxicity against murine cells (murine cells)	cytotoxicity in vivo (mice)	concentration at which antimicrobial, antiparasitic, and leishmanicide activity is presented [4]
[Fe+2].c1cc[cH-]c1.c1ccc(NC[c-]2cccc2)cc1 [FBC, N-(ferrocenmethyl)aniline, reference compound]	32%										
N^6-(ferrocenmethyl)quinazoline-2,4,6-triamine [Compound H2]		clear lack of growth and destruction of the parasite	less than 5 hours	2.6 μm/ml	up to 10 fold	30 min	more than 90%	100%	not found	not found	≥ 0.1 µg/mL
